Reference: the METLIN SMRT retention time set (Domingo-Almenara et al. 2019)

Assay: gradient 5% acetonitrile 3 min, to 50% in 2 min, to 85% in 15 min, held 3 min, 100 µL/min
Settings: column: Zorbax Extend-C18 2.1 x 50 mm; eluents: water / acetonitrile, 0.1% formic acid
Outline: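 Over 3 months, pure standards in mixtures of ~100 molecules were run by HPLC coupled to a quadrupole time-of-flight mass spectrometer in positive and negative ionization mode. The column was a Zorbax Extend-C18 (2.1 × 50 mm, 1.8 μm) at 100 μL/min, eluted with water and acetonitrile each holding 0.1% formic acid, with 40 μL dead and 900 μL dwell volumes. Retention time was determined from adduct peaks chosen by software and checked manually.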

Cc1ccc(NC(=O)C2CCCN2S(=O)(=O)c2cc3c(cc2C)NC(=O)CO3)cc1F (centres undefined)
RP-LC retention time: 808 s

COc1ccc(-c2noc(Cc3nc(-c4ccc(C)cc4)cs3)n2)cc1
RP-LC retention time: 1250 s

O=C(NC1CCCCCCC1)C1CCN(C(=O)c2cc(-c3ccncc3)n[nH]2)CC1
RP-LC retention time: 648 s

Cc1cc(C)n2nc(CN(C(=O)c3ccco3)c3ccccc3Cl)nc2n1
RP-LC retention time: 743 s

CCS(=O)(=O)N1CCCN(C(=O)NC(C)C)CC1
RP-LC retention time: 613 s

COc1ccc(OC)c(NC(=O)N2CCc3cn(CC(C)C)c4cccc(c34)C2)c1
RP-LC retention time: 1160 s

O=C(NC1CCCCC1)c1csc(-c2ccc(N3CCOCC3)nc2)n1
RP-LC retention time: 916 s

O=C(Cc1ccsc1)Nc1cnc(-c2ccccc2)nc1
RP-LC retention time: 890 s

COc1cc(NC(=O)CN2C(=O)CCc3cc(Br)ccc32)cc(OC)c1OC
RP-LC retention time: 820 s

O=c1c2cc(-c3ccc(F)cc3)nn2ccn1Cc1noc(CN2CCCCCC2)n1
RP-LC retention time: 683 s

Cc1nn(-c2cc(N3CCCC3)ncn2)c(C)c1CCC(=O)N1CCN(c2ccccn2)CC1
RP-LC retention time: 587 s

CCS(=O)(=O)Nc1ccc(C2(C(=O)NCc3cccs3)CCCCC2)cc1
RP-LC retention time: 913 s

CC(C)c1nnc(C2CN(C)CC23CCN(Cc2cc(Cl)ccc2F)CC3)o1 (centres undefined)
RP-LC retention time: 563 s

Cn1nc(C(=O)NCc2cccs2)ccc1=O
RP-LC retention time: 632 s

COc1ccc(-n2nc(N3CCN(C(=O)CC4CCCC4)CC3)ccc2=O)cc1
RP-LC retention time: 800 s

O=C(Nc1nc(-c2ccc3c(c2)OCO3)cs1)c1ccco1
RP-LC retention time: 798 s

CCCNC(=O)CCc1nc2ccccc2n(CC(=O)Nc2ccc(OC)c(Cl)c2)c1=O
RP-LC retention time: 805 s

Cc1ccc(N2CCN(C(=O)c3cn(-c4cc(N5CCCCC5)ncn4)cn3)CC2)cc1
RP-LC retention time: 994 s

Cc1sc2ccn(C)c(=O)c2c1C(=O)NCc1ccc(OC(C)C)cc1
RP-LC retention time: 833 s

CCNC(=O)Nc1cccnc1N1CCCCC1
RP-LC retention time: 577 s

CCCNC(=O)C1CCN(c2ccc(SCC(=O)Nc3ccccc3Cl)nn2)CC1
RP-LC retention time: 655 s

COc1ccc(NC(=O)c2cn(-c3cc(N(C)C)ncn3)cn2)cc1OC
RP-LC retention time: 678 s

CCOCC(=O)N1CC(c2nc(CCOCC3CCOCC3)no2)C1
RP-LC retention time: 644 s

CCn1c(=O)c(N2CCN(C(=O)NCCc3ccccc3)CC2)nc2ccccc21
RP-LC retention time: 902 s

Cc1c2cnn(-c3ccccc3)c(=O)c2c(C)n1C(C)C(=O)NCCN1CCOCC1 (centres undefined)
RP-LC retention time: 607 s

Cc1ccc(S(=O)(=O)Nc2ccc3c(c2)CCC(=O)N3CC(C)C)cc1Cl
RP-LC retention time: 994 s

Cn1cc(-c2ccncc2)cc1C(=O)NCc1ccc(F)cc1Cl
RP-LC retention time: 653 s

CCN1C(=O)COc2ccc(-c3noc(-c4ccc(C(F)(F)F)cc4)n3)cc21
RP-LC retention time: 1260 s

CCc1nc2cc(-c3noc(-c4ccncc4)n3)ccc2o1
RP-LC retention time: 959 s

Cc1ccc2c(c1)N(S(C)(=O)=O)CCC(C(=O)Nc1c(C)cccc1C)O2 (centres undefined)
RP-LC retention time: 930 s

COc1cccc(Oc2nccnc2N2CCC(C(=O)NCCC3=CCCCC3)CC2)c1
RP-LC retention time: 1050 s

CCC(C)C(NC(=O)c1ccc(OC)cc1)C(=O)Nc1nc2ccccc2[nH]1 (centres undefined)
RP-LC retention time: 700 s

Cc1ccccc1CNC(=O)Cc1csc2nc(-c3ccccc3)cn12
RP-LC retention time: 792 s

O=C(NCCCNC(=O)NC1CCCCC1)NC1CCCCC1
RP-LC retention time: 673 s

CCOC(=O)Cc1ccc(NC(=O)N2CCCC2c2cc(C)on2)cc1 (centres undefined)
RP-LC retention time: 807 s

CCOC(=O)c1cc[nH]c1CC(=O)NC
RP-LC retention time: 672 s

CC(=O)Nc1ccc(-n2cnc(C(=O)N3CCC(C(N)=O)CC3)c2)nc1
RP-LC retention time: 564 s

CCOC(=O)N1CCN(C(=O)C2CCC(=O)N(c3ccc(OC)cc3)C2c2ccc(F)cc2)CC1 (centres undefined)
RP-LC retention time: 726 s

COCc1cn(C2CN(C(=O)COc3ccccc3)C2)nn1
RP-LC retention time: 642 s

CCn1c(N2CCCC(C(=O)NCc3cccnc3)C2)cc(=O)n(C)c1=O (centres undefined)
RP-LC retention time: 575 s

COc1ccc(C(CC(=O)NCCC(C)C)N2Cc3ccccc3C2=O)cc1OC (centres undefined)
RP-LC retention time: 722 s

O=C(NC1CC1)C1CCc2sc(C(=O)N3CCCC3)cc2C1 (centres undefined)
RP-LC retention time: 654 s

CCS(=O)(=O)N1CCCc2cc(C(=O)NCCC(C)C)ccc21
RP-LC retention time: 884 s

O=C(NCc1cccc(C(F)(F)F)c1)c1cnc(-c2ccccc2)nc1-c1ccncc1
RP-LC retention time: 934 s

CCc1cc(N2CCN(C(=O)c3cc(OC)cc(OC)c3)CC2)nc2nncn12
RP-LC retention time: 601 s

COCc1cc(=O)n(CC(=O)Nc2ccc(C)cc2)c(N)n1
RP-LC retention time: 595 s

CCOC(=O)c1nc2cc(C)c(C)cc2nc1N1CCN(c2ccccn2)CC1
RP-LC retention time: 730 s

COc1ccc(-c2cc3nn(CC(=O)Nc4ccc(F)cc4)c(=O)n3c(C)n2)cc1
RP-LC retention time: 914 s

Cn1nccc1-c1cccc(-c2noc(-c3ccc(C#N)cc3)n2)c1
RP-LC retention time: 1050 s

CC1CCCCN1CCCNC(=O)c1cc(S(=O)(=O)N2CCCC2)ccc1Cl (centres undefined)
RP-LC retention time: 643 s

CCc1noc(C2CCCCN2Cc2cc(F)ccc2F)n1 (centres undefined)
RP-LC retention time: 939 s

CCC(C)NS(=O)(=O)c1cc(-c2cc(C(F)(F)F)on2)sc1C (centres undefined)
RP-LC retention time: 1140 s

N=C(N)c1ccc2cc(OC(=O)c3ccc(N=C(N)N)cc3)ccc2c1
RP-LC retention time: 595 s

O=C(NC1CCCCC1)C1CCN(c2cn[nH]c(=O)c2)C1 (centres undefined)
RP-LC retention time: 614 s

O=C(CSc1cccc2cccnc12)NCCc1ccc(Cl)cc1
RP-LC retention time: 786 s

CCC1CN(C(=O)Nc2cccc(OC)c2)c2ccccc2O1 (centres undefined)
RP-LC retention time: 945 s

Cc1ccc2oc(C(=O)Nc3nccs3)c(C)c2c1
RP-LC retention time: 942 s

Cc1ccc(-c2nnc(-c3ccccc3Cl)o2)cc1S(=O)(=O)N1CCCC1
RP-LC retention time: 1090 s

CCCc1nc(-c2c(C)cc(C)nc2NC(=O)c2ccccc2Br)no1
RP-LC retention time: 927 s

CCCN(CCC)CCNC(=O)C1CCCN(c2ncnc3c2nc2n3CCCCC2)C1 (centres undefined)
RP-LC retention time: 599 s

CC1=C(c2ccc(C(C)C)cc2)S(=O)(=O)N=C1N1CCC(C(=O)NCC2CCCO2)CC1 (centres undefined)
RP-LC retention time: 820 s

CCn1nnc(NCc2ccc(-c3ccc(C)c(Cl)c3)o2)n1
RP-LC retention time: 1090 s

CCOc1ccc(S(=O)(=O)N2CCCN(c3ccc(=O)n(-c4ccccc4)n3)CC2)cc1
RP-LC retention time: 892 s

CS(=O)(=O)N1CC(C(=O)Nc2ccc3c(c2)OCCO3)C2(CCCCC2)C1 (centres undefined)
RP-LC retention time: 847 s

CCCOc1ccccc1Nc1nc(C(=O)OCC)nc2ccccc12
RP-LC retention time: 1040 s

COCc1cc(=O)n(CC(=O)Nc2cccc(Cl)c2)c(N)n1
RP-LC retention time: 635 s

Cc1nnc(-c2cc(S(=O)(=O)Nc3ccc(S(N)(=O)=O)cc3)c(C)n2C)o1
RP-LC retention time: 649 s

O=C(N[C@H]1C[C@@H]2C[C@H]1CN2C(=O)c1cccc(C(F)(F)F)c1)c1ccccc1
RP-LC retention time: 809 s

O=C(Cc1cccs1)Nc1cccc2ccc(-n3ccnc3)nc12
RP-LC retention time: 610 s
